The conditions of the series: for mass density: 101.33 kPa, Liquid, Vibrating tube method; for Normal melting temperature: Crystal, DTA.

± gives the expanded uncertainty stated by the source.

Turning to `CCCCCC[N+]1(C)CCCCC1.O=S(=O)([N-]S(=O)(=O)C(F)(F)F)C(F)(F)F`, the mass density (as a rule, mass per unit of volume) is, setting by setting: (293 K) 1329.5 ± 1.1 kg/m3; (298.15 K) 1325.4 ± 1.1 kg/m3.

Turning to `CCCCn1cc[n+](C)c1.N#CC1=NC(C(F)(F)F)=NC1=C=[N-]`, for the setting “298.15 K”, the mass density came out at 1199.65 ± 1.5 kg/m3.

Consider `C[n+]1ccn(CC#N)c1.N#Cc1nc(C(F)(F)F)[n-]c1C#N`, for which the Normal melting temperature was determined as 92.7 ± 0.4 °C.

For the compound `CCCCCC[n+]1cccc2ccccc21.O=S(=O)([N-]S(=O)(=O)C(F)(F)F)C(F)(F)F` [1-hexylquinolinium bis(trifluoromethylsulfonyl)amide], the Normal melting temperature turned out to be 45 ± 0.4 °C.

`OC[C@@H](O)[C@@H](O)[C@H](O)[C@@H](O)CO` [D-sorbitol]: the Normal melting temperature came out at 98.6 ± 0.4 °C.

For `CCCCCC[n+]1ccc2ccccc2c1.O=S(=O)([N-]S(=O)(=O)C(F)(F)F)C(F)(F)F` [N-hexylisoquinolinium bis(trifluoromethylsulfonyl)imide], the mass density (333.2 K) came out at 1349.3 ± 1.8 kg/m3.

As for `OC[C@@H](O)[C@H](O)[C@@H](O)CO` [xylitol], the Normal melting temperature was 94.1 ± 0.4 °C.

The values are drawn from the NIST ThermoML archive (doi:10.1016/j.jct.2014.04.021).
